Assay [1] relates to KPC-expressing Klebsiella pneumoniae strain KPC-KP1. In words: Imipenem MIC of the test strain. It is filed as cell-based. Here is the method: (§1) To determine the in vitro effects of the antibody generated in response to rNDM1 and rKPC vaccination, bacteria were incubated overnight at 37° C. in 10% serum plus Mueller-Hinton broth, per CLSI standards. […] Thus, the immune serum was directly cidal for NDM-1 expressing K. pneumoniae.

In assay [2] the test system is NDM-1-expressing K. pneumoniae (ATCC BAA-2146). In words: Imipenem MIC of the test strain. It is filed as cell-based. As to conditions: Klebsiella pneumoniae, ATCCBAA2146. The method, then:
as §1

The target of a further assay is T1, NDM-1 (Klebsiella pneumoniae, UniProt C7C422).
T1 construct: made in house
In words: IgG antibody titers in serum of mice vaccinated with rNDM-1. The assay is classed as in vivo. The conditions noted are these: subcutaneous with Al(OH)3 adjuvant, booster at three weeks, serum two weeks after booster, vs control mice. From the text: A vaccination program targeting KPC- and NDM-1 was developed. The KPC gene was cloned from a pan-resistant (to all antibiotics, including colistin) clinical lung isolate of K. pneumoniae acquired at a local hospital (KPC-KP1) and the NDM-1 gene was cloned from a clinical K. pneumoniae isolate (ATCC BAA-2146). Recombinant KPC (rKPC) and recombinant NDM-1 (rNDM-1) proteins were expressed, purified, and used for immunization of mice. The immunization of the mice consisted of subcutaneously injecting either rKPC or rNDM-1 with Al(OH)3 adjuvant. A booster immunization for each mouse was administered at three weeks post initial immunization. Two weeks after the booster, serum from immune and control mice were harvested. […] Thus, high titers of immune polyclonal antibodies have been generated against KPC and NDM-1.

Results on 2 molecules are retold here after patent US9169477B2, “Compositions and methods for immunization against bacteria expressing a carbapenemase” (priority 2012, dated 2015).

Take `C[C@@H](O)[C@H]1C(=O)N2C(C(=O)O)=C(SCCN=CN)C[C@H]12` [imipenem]: the MIC in assay [1] and in assay [2] was more than 32 µg/mL in each case.

B1: rNDM-1: Recombinant NDM-1 protein cloned from K. pneumoniae ATCC BAA-2146, injected with Al(OH)3 adjuvant for immunization (protein, UniProt C7C422 29-270, looked up)
Metallo-beta-lactamase type 2: GEIRPTIGQQMETGDQRFGDLVFRQLAPNVWQHTSYLDMPGFGAVASNGLIVRDGGRVLVVDTAWTDDQTAQILNWIKQEINLPVALAVVTHAHQDKMGGMDALHAAGIATYANALSNQLAPQEGMVAAQHSLTFAANGWVEPATAPNFGPLKVFYPGPGHTSDNITVGIDGTDIAFGGCLIKDSKAKSLGNLGDADTEHYAASARAFGAAFPKASMIVMSHSAPDSRAAITHTARMADKLR
For the molecule B1, the entries for the “anti-NDM-1 IgG titers” value with NDM-1 (listed as NDM-1) and with NDM-1 (listed as rNDM1) were “marked increase” and “high titers”, respectively.
